According to publication PMC3228860, “Mitochondrial NAD^+-dependent malic enzyme from Anopheles stephensi: a possible novel target for malaria mosquito control” (2011):
pKi: −log10 of the molar value.

Biological target: mitochondrial NAD+-dependent malic enzyme (ME)
Assay: NADH formation at […] nm, mitochondrial lysate, Ki from reciprocal plots
Assay type: biochemical, Anopheles stephensi

Point of comparison: `O=C(O)C(=O)O` [Oxalate], pKi 6.82. Against it:
- O=C(O)C(O)C(=O)O [Tartronate] — 0.61 log units lower, 6.21
- O=C(O)CC(=O)C(=O)O [Oxaloacetate] — within 0.2 log units, 6.92
